# Key:
# [1] = molecular target: T1, Mer (Homo sapiens, UniProt Q12866); experiment: LanthaScreen Eu kinase binding assay, Mer; details: Tracer 236
# T1 construct: purchased Life Technologies
# T1 sequence (Q12866 21-999): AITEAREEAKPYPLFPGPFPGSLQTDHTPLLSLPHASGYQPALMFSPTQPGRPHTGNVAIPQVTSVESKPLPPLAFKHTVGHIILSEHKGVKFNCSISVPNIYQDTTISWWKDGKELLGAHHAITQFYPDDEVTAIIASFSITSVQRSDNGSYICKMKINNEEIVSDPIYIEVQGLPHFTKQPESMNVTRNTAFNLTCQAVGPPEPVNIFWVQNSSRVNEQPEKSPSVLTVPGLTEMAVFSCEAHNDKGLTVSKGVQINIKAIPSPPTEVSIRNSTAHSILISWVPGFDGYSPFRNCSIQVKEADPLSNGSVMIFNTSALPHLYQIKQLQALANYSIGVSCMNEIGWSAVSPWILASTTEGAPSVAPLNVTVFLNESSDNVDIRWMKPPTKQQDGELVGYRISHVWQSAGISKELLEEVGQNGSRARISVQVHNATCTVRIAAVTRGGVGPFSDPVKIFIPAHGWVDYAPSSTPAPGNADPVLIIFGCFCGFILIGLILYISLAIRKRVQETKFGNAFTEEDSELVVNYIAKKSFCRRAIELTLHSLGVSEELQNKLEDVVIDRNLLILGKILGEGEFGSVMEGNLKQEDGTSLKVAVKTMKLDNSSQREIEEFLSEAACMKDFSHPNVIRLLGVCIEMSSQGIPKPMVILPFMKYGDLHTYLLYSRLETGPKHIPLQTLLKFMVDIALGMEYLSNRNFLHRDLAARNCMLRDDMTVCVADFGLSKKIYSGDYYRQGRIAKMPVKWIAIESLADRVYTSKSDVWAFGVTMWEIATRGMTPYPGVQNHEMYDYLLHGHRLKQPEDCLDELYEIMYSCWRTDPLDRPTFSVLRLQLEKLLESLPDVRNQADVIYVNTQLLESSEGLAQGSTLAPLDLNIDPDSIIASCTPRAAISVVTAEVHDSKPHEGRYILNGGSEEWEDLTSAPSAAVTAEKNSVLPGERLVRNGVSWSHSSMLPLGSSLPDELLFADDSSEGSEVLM
# Description: (§1) LanthaScreen® Eu Kinase Binding assays were conducted at Life Technologies using the manufacturer's specifications for each kinase indicated.
# (§2) Briefly, the principle behind this assay is based upon the binding and displacement of an Alexa Fluor 647-labeled tracer to the kinase of interest. Binding of the tracer to the kinase is detected using an EU-labeled anti-tag antibody. Simultaneous binding of both the tracer and antibody to the kinase gives rise to a FRET-signal. Binding of an inhibitor to the kinase competes for binding with the tracer, resulting in a loss of FRET-signal.
# (§3) Binding Assay Protocol for AXL, Mer, Tyro3 and Met
# (§4) A given compound was diluted in DMSO to make a stock compound solution. The stock compound solution was serially diluted over eight steps in DMSO. Each diluted compound solution in DMSO was diluted in kinase buffer. Afterwards four kinds of working solution were prepared. First, Tracer-Working solution consists of Tracer 236 and Kinase Buffer. Second, Axl, Mer, Tyro3 or Met/anti-GST-AB-Working solution contained one of the kinases Axl, Mer, Tyro3, Met or anti-GST-AB (=anti glutathione-S-transferase antibody) in Kinase Buffer. Third, anti-GST-AB-Working solution was made with anti-GST-AB and Kinase Buffer. Last, in the DMSO-Working solution DMSO was added to Kinase Buffer to a final concentration to 3%. Each of the four kinds of working solutions were separately added to the assay plate and then incubated for 1 h at room temperature. After incubation, the assay plate was measured with respect to the FRET-Signal with the EnVision (Perkin Elmer) using the program LanthaHTRF-Assay. Data evaluation was done in the Quattro Workflow software.
# (§5) Table 1 summarises the results obtained for AXL, Mer and Tyro3-kinases binding assays; table 2 summarises the results obtained for the Met kinase binding assay.
# [2] = molecular target: T2, TYRO3 (Homo sapiens, UniProt Q06418); experiment: LanthaScreen Eu kinase binding assay, TYRO3; details: Tracer 236
# T2 construct: purchased Life Technologies
# T2 sequence (Q06418 41-890): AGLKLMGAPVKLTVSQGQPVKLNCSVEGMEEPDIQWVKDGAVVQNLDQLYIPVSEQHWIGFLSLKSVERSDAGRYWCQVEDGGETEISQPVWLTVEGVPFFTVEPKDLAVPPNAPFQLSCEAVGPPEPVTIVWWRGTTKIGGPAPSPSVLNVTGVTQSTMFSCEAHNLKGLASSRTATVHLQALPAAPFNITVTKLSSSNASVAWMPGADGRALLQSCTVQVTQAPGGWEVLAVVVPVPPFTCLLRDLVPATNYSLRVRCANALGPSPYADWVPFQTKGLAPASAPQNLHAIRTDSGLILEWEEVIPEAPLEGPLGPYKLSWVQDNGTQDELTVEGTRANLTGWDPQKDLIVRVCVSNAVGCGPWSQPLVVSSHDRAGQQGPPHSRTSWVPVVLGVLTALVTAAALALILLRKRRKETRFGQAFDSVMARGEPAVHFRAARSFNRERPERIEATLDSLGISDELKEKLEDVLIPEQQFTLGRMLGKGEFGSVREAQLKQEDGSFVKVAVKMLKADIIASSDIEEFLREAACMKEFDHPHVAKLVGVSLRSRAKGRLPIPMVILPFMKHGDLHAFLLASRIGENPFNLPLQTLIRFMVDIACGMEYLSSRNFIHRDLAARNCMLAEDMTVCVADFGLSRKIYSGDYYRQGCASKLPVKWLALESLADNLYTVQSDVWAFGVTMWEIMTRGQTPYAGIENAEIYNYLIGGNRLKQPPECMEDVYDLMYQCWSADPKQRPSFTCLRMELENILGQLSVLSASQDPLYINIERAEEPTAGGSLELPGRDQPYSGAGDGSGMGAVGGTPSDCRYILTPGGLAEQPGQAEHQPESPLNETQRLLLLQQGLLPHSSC
# Description: as §1, §2, §3, §4, §5
# [3] = molecular target: T3, Met (Homo sapiens, UniProt P08581); experiment: LanthaScreen Eu kinase binding assay, Met; details: Tracer 236, read-out: cMet kinase binding activity (Kd)
# T3 construct: purchased Life Technologies
# T3 sequence (P08581 25-1390): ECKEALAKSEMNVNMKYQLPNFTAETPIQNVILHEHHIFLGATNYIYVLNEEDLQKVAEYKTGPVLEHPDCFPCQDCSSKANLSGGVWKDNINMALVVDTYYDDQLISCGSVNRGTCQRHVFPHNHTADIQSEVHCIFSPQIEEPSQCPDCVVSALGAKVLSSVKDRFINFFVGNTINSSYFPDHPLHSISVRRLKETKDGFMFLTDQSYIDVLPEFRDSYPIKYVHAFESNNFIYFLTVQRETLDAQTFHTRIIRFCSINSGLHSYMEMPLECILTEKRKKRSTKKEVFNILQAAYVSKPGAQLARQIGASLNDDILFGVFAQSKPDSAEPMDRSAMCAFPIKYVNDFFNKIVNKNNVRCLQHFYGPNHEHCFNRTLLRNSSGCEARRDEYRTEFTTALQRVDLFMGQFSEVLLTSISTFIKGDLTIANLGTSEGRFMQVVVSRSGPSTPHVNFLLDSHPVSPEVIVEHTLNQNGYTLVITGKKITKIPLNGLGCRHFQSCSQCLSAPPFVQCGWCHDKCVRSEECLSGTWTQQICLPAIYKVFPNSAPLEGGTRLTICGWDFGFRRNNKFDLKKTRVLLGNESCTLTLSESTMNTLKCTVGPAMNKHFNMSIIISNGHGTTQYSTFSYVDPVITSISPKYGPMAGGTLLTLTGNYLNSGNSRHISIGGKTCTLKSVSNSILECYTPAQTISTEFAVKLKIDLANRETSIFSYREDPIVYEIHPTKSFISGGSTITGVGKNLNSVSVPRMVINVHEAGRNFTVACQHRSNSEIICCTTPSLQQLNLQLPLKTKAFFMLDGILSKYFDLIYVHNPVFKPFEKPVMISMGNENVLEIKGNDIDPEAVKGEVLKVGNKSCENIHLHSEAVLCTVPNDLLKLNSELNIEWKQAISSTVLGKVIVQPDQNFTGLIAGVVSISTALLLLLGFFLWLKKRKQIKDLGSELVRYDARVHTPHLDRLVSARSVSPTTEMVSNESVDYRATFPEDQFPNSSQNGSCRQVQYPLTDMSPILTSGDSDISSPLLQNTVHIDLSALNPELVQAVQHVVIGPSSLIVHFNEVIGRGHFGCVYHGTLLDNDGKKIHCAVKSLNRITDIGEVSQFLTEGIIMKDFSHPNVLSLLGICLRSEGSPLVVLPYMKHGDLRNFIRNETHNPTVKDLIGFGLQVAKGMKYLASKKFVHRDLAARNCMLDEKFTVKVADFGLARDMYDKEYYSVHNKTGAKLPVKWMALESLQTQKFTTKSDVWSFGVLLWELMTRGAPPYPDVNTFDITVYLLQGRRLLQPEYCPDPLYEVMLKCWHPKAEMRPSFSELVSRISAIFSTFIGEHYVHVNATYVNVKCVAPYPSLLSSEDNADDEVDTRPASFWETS
# Description: as §1, §2, §3, §4, §5
# [4] = molecular target: T4, Axl (Homo sapiens, UniProt P30530); experiment: LanthaScreen Eu kinase binding assay, Axl; details: Tracer 236
# T4 construct: purchased Life Technologies
# T4 sequence (P30530 26-894): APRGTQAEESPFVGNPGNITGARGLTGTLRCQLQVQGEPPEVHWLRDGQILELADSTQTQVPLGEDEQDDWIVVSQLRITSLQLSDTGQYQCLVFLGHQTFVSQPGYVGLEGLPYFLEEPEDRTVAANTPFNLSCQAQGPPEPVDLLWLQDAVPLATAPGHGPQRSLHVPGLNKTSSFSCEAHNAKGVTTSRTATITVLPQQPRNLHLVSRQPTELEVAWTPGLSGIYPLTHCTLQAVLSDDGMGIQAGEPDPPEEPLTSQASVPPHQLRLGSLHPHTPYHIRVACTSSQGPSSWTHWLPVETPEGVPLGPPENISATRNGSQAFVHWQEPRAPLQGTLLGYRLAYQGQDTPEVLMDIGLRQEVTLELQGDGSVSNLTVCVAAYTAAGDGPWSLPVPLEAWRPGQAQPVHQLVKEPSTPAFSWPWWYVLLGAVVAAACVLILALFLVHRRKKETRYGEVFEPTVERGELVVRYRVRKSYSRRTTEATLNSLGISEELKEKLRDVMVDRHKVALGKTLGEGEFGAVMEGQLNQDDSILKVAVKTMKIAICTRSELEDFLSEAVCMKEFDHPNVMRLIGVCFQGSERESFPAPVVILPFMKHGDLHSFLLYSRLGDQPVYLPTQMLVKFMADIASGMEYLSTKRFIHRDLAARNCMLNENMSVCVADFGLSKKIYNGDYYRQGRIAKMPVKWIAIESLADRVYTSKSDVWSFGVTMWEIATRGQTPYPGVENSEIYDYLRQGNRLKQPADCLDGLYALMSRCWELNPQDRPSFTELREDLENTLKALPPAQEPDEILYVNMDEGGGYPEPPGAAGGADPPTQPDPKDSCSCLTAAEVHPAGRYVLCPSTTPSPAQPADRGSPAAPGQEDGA
# Description: as §1, §2, §3, §4, §5
Kd [1] [nM],Kd [2] [nM],Kd [3] [nM],Kd [4] [nM],SMILES
100 to 1000,≥ 1000,100 to 1000,≥ 1000,CCOc1cnn(CCO)c1C(=O)Nc1ccc(Oc2ccnc3cc(OC)c(OC)cc23)cn1 [Compound 72]
< 100,100 to 1000,100 to 1000,100 to 1000,CCOc1cn(C2CCN(C)C2)nc1C(=O)Nc1ccc(Oc2ccnc3cc(OC)c(OC)cc23)cn1 (stereo not shown) [Compound 74]
100 to 1000,≥ 1000,100 to 1000,100 to 1000,CCOc1cnn(C2CCN(C)C2)c1C(=O)Nc1ccc(Oc2ccnc3cc(OC)c(OC)cc23)cn1 (stereo not shown) [Compound 75]
< 100,100 to 1000,100 to 1000,100 to 1000,CCOc1cnn(C2CCOC2)c1C(=O)Nc1ccc(Oc2ccnc3cc(OC)c(OC)cc23)cn1 (stereo not shown) [Compound 77]
100 to 1000,≥ 1000,100 to 1000,≥ 1000,CCOc1cnn(CCOC(F)F)c1C(=O)Nc1ccc(Oc2ccnc3cc(OC)c(OC)cc23)cn1 [Compound 78]
< 100,100 to 1000,< 100,< 100,CCOc1cn(Cc2cccnc2)nc1C(=O)Nc1ccc(Oc2ccnc3cc(OC)c(OC)cc23)cn1 [Compound 83]
< 100,≥ 1000,< 100,100 to 1000,CCOc1cnn(Cc2cccnc2)c1C(=O)Nc1ccc(Oc2ccnc3cc(OC)c(OC)cc23)cn1 [Compound 84]
100 to 1000,≥ 1000,100 to 1000,≥ 1000,CCOc1cn(-c2cnc(C(=O)O)nc2)nc1C(=O)Nc1ccc(Oc2ccnc3cc(OC)c(OC)cc23)cn1 [Compound 88]
100 to 1000,100 to 1000,≥ 1000,100 to 1000,CCOc1cn(-c2ccc(F)cc2C)nc1C(=O)Nc1ccc(Oc2ccnc3cc(OC)c(OC)cc23)c(NC(C)C)c1 [Compound 91]
< 100,100 to 1000,< 100,100 to 1000,CCOc1cnn(CCc2cccnc2)c1C(=O)Nc1ccc(Oc2ccnc3cc(OC)c(OC)cc23)cn1 [Compound 95]
≥ 1000,≥ 1000,≥ 1000,≥ 1000,CCOc1cn(-c2ccc(F)cc2C)nc1C(=O)Nc1cnc(Oc2ccnc3cc(OC)c(OC)cc23)cn1 [Compound 98]
100 to 1000,100 to 1000,100 to 1000,100 to 1000,CCOc1cnn(-c2ccc(Cl)cc2C(F)(F)F)c1C(=O)Nc1ccc(Oc2ccnc3cc(OC)c(OC)cc23)cn1 [Compound 103]
≥ 1000,≥ 1000,100 to 1000,100 to 1000,CCOc1cn(-c2ccc(F)cc2C)nc1C(=O)Nc1ccc(Oc2ccnc3cc(OC)c(OC)cc23)cc1C(F)(F)F [Compound 109]
< 100,100 to 1000,100 to 1000,100 to 1000,CCOc1cnn(-c2ccc(C(C)C)cc2)c1C(=O)Nc1ccc(Oc2ccnc3cc(OC)c(OC)cc23)cn1 [Compound 118]
100 to 1000,100 to 1000,100 to 1000,100 to 1000,CCOc1cn(-c2ccc(F)cc2C)nc1C(=O)Nc1ccc(Oc2ccnc3cc(OC)c(OC)cc23)cc1CO [Compound 119]
< 100,≥ 1000,100 to 1000,100 to 1000,CCOc1cn(-c2ccc(C(C)(C)C)cc2)nc1C(=O)Nc1ccc(Oc2ccnc3cc(OC)c(OC)cc23)cn1 [Compound 121]
≥ 1000,≥ 1000,≥ 1000,≥ 1000,CCOc1cn(-c2ccc(F)cc2C)nc1C(=O)Nc1csc(Oc2ccnc3cc(OC)c(OC)cc23)n1 [Compound 122]
100 to 1000,≥ 1000,100 to 1000,100 to 1000,CCOc1cnn(-c2ccc(C(C)(C)C)cc2)c1C(=O)Nc1ccc(Oc2ccnc3cc(OC)c(OC)cc23)cn1 [Compound 123]
100 to 1000,≥ 1000,100 to 1000,100 to 1000,CCOc1cn(-c2c(CN(C)C)ccnc2C)nc1C(=O)Nc1ccc(Oc2ccnc3cc(OC)c(OC)cc23)cn1 [Compound 131]
< 100,≥ 1000,< 100,100 to 1000,CCOc1cn(-c2ncc(Cl)cc2CN)nc1C(=O)Nc1ccc(Oc2ccnc3cc(OC)c(OC)cc23)cn1 [Compound 134]
< 100,< 100,< 100,< 100,CCOc1cn(-c2cnc(N)cn2)nc1C(=O)Nc1ccc(Oc2ccnc3cc(OC)c(OC)cc23)cn1 [Compound 136]
< 100,100 to 1000,< 100,< 100,CCOc1cn(-c2cnc(N)cc2C)nc1C(=O)Nc1ccc(Oc2ccnc3cc(OC)c(OC)cc23)cn1 [Compound 137]

# From US10934274B2, “Quinoline derivatives as TAM RTK inhibitors” (Qurient Co., Ltd., priority 2015, dated 2021)
